For this test, the system named is HCV replicon. Description: HCV replicon replication assay (NPTII ELISA). The test is classed as cell-based, Hepatitis C virus (Huh-7 cells). The following applies: Hepatitis C virus, Huh-7, 72 h, inhibition of HCV replicon replication in Huh-7 HCV replicon-containing cells, three days incubation, NPT level by ELISA. The method in brief:
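Huh-7 cells carrying a Bartenschlager NPTII (neo) HCV replicon, treated 3 days at 37 °C with compound, generally 6 concentrations from 10 to 0.03 micromolar, in equal DMSO across wells. NPTII level, proportional to replication, read by capture ELISA on methanol:acetone-fixed cells; interferon alpha positive control; toxicity scored visually or by MTS.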
A general note: Replicon systems follow genome replication, usually without infectious particles.

Where two headings read alike, the source gives them in different places.

The term EC50 denotes the concentration giving half of the maximal effect.

`CCCCCOc1ccc(N(C(=O)Nc2ccccc2)c2nc(-c3cccnc3)cs2)cc1C(F)(F)F` [Compound 81, 1-(4-(pentyloxy)-3-(trifluoromethyl)phenyl)-3-phenyl-1-(4-(pyridin-3-yl)thiazol-2-yl)urea]: the EC50 (read-out: EC50) was less than 1 µM.
Consider `CCCCCCCCOc1ccc(N(CC(N)=O)c2nc(-c3ccc(OCC(N)=O)cc3)cs2)cc1` [Compound 82, 2-((4-(4-(2-amino-2-oxoethoxy)phenyl)thiazol-2-yl)(4-(octyloxy)phenyl)amino)acetamide], for which the concentration for a half-maximal effect (EC50) (read-out: EC50) is greater than 10 µM.
On the same count and under the same terms, under `NC(=O)N(c1ccc(F)c(C(F)(F)F)c1)c1nc(-c2cccnc2)cs1` [Compound 83, 1-(4-fluoro-3-(trifluoromethyl)phenyl)-1-(4-(pyridin-3-yl)thiazol-2-yl)urea] stands less than 1 µM; under `COc1ccc(N(C(N)=O)c2nc(-c3cccnc3)cs2)cc1C(F)(F)F` [Compound 84, 1-(4-methoxy-3-(trifluoromethyl)phenyl)-1-(4-(pyridin-3-yl)thiazol-2-yl)urea], less than 1 µM.
Same read-out and setting: to `COc1ccc(N(C(N)=O)c2nc(-c3ccc(F)cc3)cs2)cc1C(F)(F)F` [Compound 85, 1-(4-(4-fluorophenyl)thiazol-2-yl)-1-(4-methoxy-3-(trifluoromethyl)phenyl)urea] belongs less than 1 µM; to `CCCCCOc1ccc(N(C(N)=O)c2nc(-c3ccc(F)cc3F)cs2)cc1C(F)(F)F` [Compound 86, 1-(4-(2,4-difluorophenyl)thiazol-2-yl)-1-(4-(pentyloxy)-3-(trifluoromethyl)phenyl)urea], less than 1 µM.
Same read-out and setting: to `CCCCCOc1ccc(N(C(N)=O)c2nc(-c3cccnc3)cs2)cc1F` [Compound 87, 1-(3-fluoro-4-(pentyloxy)phenyl)-1-(4-(pyridin-3-yl)thiazol-2-yl)urea] belongs less than 1 µM; to `CCCCCCCCOc1ccc(N(C(=O)NC2CCCCC2)c2nc(-c3cccnc3)cs2)cc1` [Compound 88, 3-cyclohexyl-1-(4-(octyloxy)phenyl)-1-(4-(pyridin-3-yl)thiazol-2-yl)urea], 1 to 10 µM; to `CCCCCCCCOc1ccc(N(C(=O)c2cc(C)on2)c2nc(-c3ccc(Cl)s3)cs2)cc1` [Compound 89, N-(4-(5-chlorothiophen-2-yl)thiazol-2-yl)-5-methyl-N-(4-(octyloxy)phenyl)isoxazole-3-carboxamide], less than 1 µM.
Compound `CCCCCCCCOc1ccc(N(C(=O)c2cc(C)on2)c2nc(-c3nc4ccccc4s3)cs2)cc1` [Compound 90] came in with an EC50 of 1 to 10 µM.
With `CCCCCCCOc1ccc(N(C(=O)c2cc(C)on2)c2nc(-c3ccc(Cl)s3)cs2)cc1` [Compound 91, N-(4-(5-chlorothiophen-2-yl)thiazol-2-yl)-N-(4-(heptyloxy)phenyl)-5-methylisoxazole-3-carboxamide], the EC50 (read-out: EC50) is less than 1 µM.
The same measure, in the same setting: to `CCCCCCCOc1ccc(N(C(=O)c2cc(C)on2)c2nc(-c3nc4ccccc4s3)cs2)cc1` [Compound 92, N-(4-(benzo[d]thiazol-2-yl)thiazol-2-yl)-N-(4-(heptyloxy)phenyl)-5-methylisoxazole-3-carboxamide] belongs 1 to 10 µM.
Still for that read-out and setting: under `CCCCCOc1ccc(N(C(=O)c2cc(C)on2)c2nc(-c3nc4ccccc4s3)cs2)cc1C(F)(F)F` [Compound 94, N-(4-(benzo[d]thiazol-2-yl)thiazol-2-yl)-5-methyl-N-(4-(pentyloxy)-3-(trifluoromethyl)phenyl)isoxazole-3-carboxamide] stands less than 1 µM; under `CCCCCCCOc1ccc(N(C(=O)C2CCCCC2)c2nc(-c3ccccn3)cs2)cc1` [Compound 95, N-(4-(heptyloxy)phenyl)-N-(4-(pyridin-2-yl)thiazol-2-yl)cyclohexanecarboxamide], 1 to 10 µM.
Still for that read-out and setting: to `CCCCCOc1ccc(N(C(=O)C2CCCCC2)c2nc(-c3ccccn3)cs2)cc1C(F)(F)F` [Compound 96, N-(4-(pentyloxy)-3-(trifluoromethyl)phenyl)-N-(4-(pyridin-2-yl)thiazol-2-yl)cyclohexanecarboxamide] belongs less than 1 µM; to `CCCCCCCCOc1ccc(N(C(=O)C(=O)OC)c2nc(-c3ccc(Cl)s3)cs2)cc1` [Compound 97, methyl 2-((4-(5-chlorothiophen-2-yl)thiazol-2-yl)(4-(octyloxy)phenyl)amino)-2-oxoacetate], less than 1 µM.
`CCCCCCCOc1ccc(N(C(=O)C(=O)OC)c2nc(-c3ccc(Cl)s3)cs2)cc1` [Compound 98, methyl 2-((4-(5-chlorothiophen-2-yl)thiazol-2-yl)(4-(heptyloxy)phenyl)amino)-2-oxoacetate]: the EC50 (read-out: EC50) is less than 1 µM.
The same measure, in the same setting: to `CCCCCOc1ccc(N(C(=O)C(=O)OC)c2nc(-c3ccc(Cl)s3)cs2)cc1C(F)(F)F` [Compound 99, methyl 2-((4-(5-chlorothiophen-2-yl)thiazol-2-yl)(4-(pentyloxy)-3-(trifluoromethyl)phenyl)amino)-2-oxoacetate] belongs less than 1 µM; to `CCCCCOc1ccc(N(C(=O)C(=O)OC)c2nc(-c3ccc4[nH]c(=O)oc4c3)cs2)cc1C(F)(F)F` [Compound 100, methyl 2-oxo-2-((4-(2-oxo-2,3-dihydrobenzo[d]oxazol-6-yl)thiazol-2-yl)(4-(pentyloxy)-3-(trifluoromethyl)phenyl)amino)acetate], less than 1 µM.
For the compound `CCCCCCCCOc1ccc(N(C(=O)c2cccnc2)c2nc(-c3nc4ccccc4s3)cs2)cc1` [Compound 101, N-(4-(benzo[d]thiazol-2-yl)thiazol-2-yl)-N-(4-(octyloxy)phenyl)nicotinamide], the concentration giving a half-maximal response (EC50) (read-out: EC50) lay within 1 to 10 µM.
With `CCCCCOc1ccc(N(C(=O)c2cccnc2)c2nc(-c3nc4ccccc4s3)cs2)cc1C(F)(F)F` [Compound 102, N-(4-(benzo[d]thiazol-2-yl)thiazol-2-yl)-N-(4-(pentyloxy)-3-(trifluoromethyl)phenyl)nicotinamide], for the setting “read-out: EC50”, the EC50 is less than 1 µM.
The same measure, in the same setting: to `CCCCOc1ccc(N(C(N)=O)c2nc(-c3ccccn3)cs2)cc1C(F)(F)F` [Compound 103, 1-(4-butoxy-3-(trifluoromethyl)phenyl)-1-(4-(pyridin-2-yl)thiazol-2-yl)urea] belongs less than 1 µM; to `CCCCCN(C)c1ccc(N(C(N)=O)c2nc(-c3ccc4c(c3)NC(=O)CO4)cs2)cc1C(F)(F)F` [Compound 105, 1-(4-(methyl(pentyl)amino)-3-(trifluoromethyl)phenyl)-1-(4-(3-oxo-3,4-dihydro-2H-benzo[b][1,4]oxazin-6-yl)thiazol-2-yl)urea], 1 to 10 µM; to `CCCCCN(C)c1ccc(N(C(N)=O)c2nc(-c3ccccn3)cs2)cc1C(F)(F)F` [Compound 106, 1-(4-(methyl(pentyl)amino)-3-(trifluoromethyl)phenyl)-1-(4-(pyridin-2-yl)thiazol-2-yl)urea], less than 1 µM.
As for `CCCCCN(C)c1ccc(N(C(N)=O)c2nc(-c3ccc(F)c(F)c3)cs2)cc1C(F)(F)F` [Compound 107], the EC50 is less than 1 µM.
For the compound `CCCCCOc1ccc(N(C(N)=O)c2nc(-c3ccc(O)c(C(N)=O)c3)cs2)cc1F` [Compound 109, 5-(2-(1-(3-fluoro-4-(pentyloxy)phenyl)ureido)thiazol-4-yl)-2-hydroxybenzamide], the EC50 (read-out: EC50) fell in the range of 1 to 10 µM.
On the same count and under the same terms, under `CCCCCOc1ccc(N(C(N)=O)c2nc(-c3ccc4c(c3)NC(=O)CO4)cs2)cc1F` [Compound 110, 1-(3-fluoro-4-(pentyloxy)phenyl)-1-(4-(3-oxo-3,4-dihydro-2H-benzo[b][1,4]oxazin-6-yl)thiazol-2-yl)urea] stands greater than 10 µM; under `CCCCCOc1ccc(N(C(N)=O)c2nc(-c3ccc(F)cc3)cs2)cc1F` [Compound 111, 1-(3-fluoro-4-(pentyloxy)phenyl)-1-(4-(4-fluorophenyl)thiazol-2-yl)urea], less than 1 µM.
The same measure, in the same setting: under `CCCCCOc1ccc(N(C(N)=O)c2nc(-c3ccccn3)cs2)cc1F` [Compound 112, 1-(3-fluoro-4-(pentyloxy)phenyl)-1-(4-(pyridin-2-yl)thiazol-2-yl)urea] stands 1 to 10 µM; under `CCCCCOc1ccc(N(C(N)=O)c2nc(-c3ccc(F)c(F)c3)cs2)cc1F` [Compound 113, 1-(4-(3,4-difluorophenyl)thiazol-2-yl)-1-(3-fluoro-4-(pentyloxy)phenyl)urea], 1 to 10 µM.
The same measure, in the same setting: to `Cc1ccc(-c2csc(N(C(N)=O)c3ccc(OCC4CCCCC4)c(F)c3)n2)cn1` [Compound 114, 1-(4-(cyclohexylmethoxy)-3-fluorophenyl)-1-(4-(6-methylpyridin-3-yl)thiazol-2-yl)urea] belongs 1 to 10 µM.
In the case of `NC(=O)c1cc(-c2csc(N(C(N)=O)c3ccc(OCC4CCCCC4)c(F)c3)n2)ccc1O` [Compound 115, 5-(2-(1-(4-(cyclohexylmethoxy)-3-fluorophenyl)ureido)thiazol-4-yl)-2-hydroxybenzamide], for the setting “read-out: EC50”, the EC50 was 1 to 10 µM.
On to `NC(=O)N(c1ccc(OCC2CCCCC2)c(F)c1)c1nc(-c2ccc3c(c2)NC(=O)CO3)cs1` [Compound 116, 1-(4-(cyclohexylmethoxy)-3-fluorophenyl)-1-(4-(3-oxo-3,4-dihydro-2H-benzo[b][1,4]oxazin-6-yl)thiazol-2-yl)urea], for which, where the note is “read-out: EC50”, the EC50 is greater than 10 µM.
On the same count and under the same terms, to `NC(=O)N(c1ccc(OCC2CCCCC2)c(F)c1)c1nc(-c2ccc(F)cc2)cs1` [Compound 117, 1-(4-(cyclohexylmethoxy)-3-fluorophenyl)-1-(4-(4-fluorophenyl)thiazol-2-yl)urea] belongs 1 to 10 µM.
Still for that read-out and setting: to `NC(=O)N(c1ccc(OCC2CCCCC2)c(F)c1)c1nc(-c2ccccn2)cs1` [Compound 118, 1-(4-(cyclohexylmethoxy)-3-fluorophenyl)-1-(4-(pyridin-2-yl)thiazol-2-yl)urea] belongs 1 to 10 µM; to `NC(=O)N(c1ccc(OCC2CCCCC2)c(F)c1)c1nc(-c2cccnc2)cs1` [Compound 119, 1-(4-(cyclohexylmethoxy)-3-fluorophenyl)-1-(4-(pyridin-3-yl)thiazol-2-yl)urea], less than 1 µM.
